Measured values taken from PubChem BioAssay AID248 (DTP/NCI, 2004).
Values joined by “and” are separate entries in the source; they are usually repeats but may differ in a detail not shown here. Equal values may be shown once. Toxic doses and inconclusive results are not listed. Rule as the data show it: active = T/C of 150% or more; inactive = T/C below 125%.

Test system: L1210 leukemia ip in BDF1 mice, survival T/C
Test: NCI In Vivo Anticancer Drug Screen. Data for tumor model L1210 Leukemia (intraperitoneal) in B6D2F1 (BDF1) mice
Details: endpoint: mean survival time, higher = longer survival
Method in brief: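 Ratio derived from survival: compound-dosed mice over vehicle-dosed mice, all bearing a transplantable tumor.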

[1] = dose: 100.0 mg/kg/injection, schedule: Q04DX003 (ip), vehicle: Klucel (hydroxypropylcellulose) (HPC)
[2] = dose: 200.0 mg/kg/injection, schedule: Q01DX009 (ip), vehicle: Klucel (hydroxypropylcellulose) (HPC)
[3] = dose: 200.0 mg/kg/injection, schedule: Q04DX003 (ip), vehicle: Klucel (hydroxypropylcellulose) (HPC)
[4] = dose: 100.0 mg/kg/injection, schedule: Q01DX009 (ip), vehicle: saline with Tween-80
[5] = dose: 200.0 mg/kg/injection, schedule: Q01DX009 (ip), vehicle: saline with Tween-80
[6] = dose: 400.0 mg/kg/injection, schedule: Q01DX009 (ip), vehicle: saline with Tween-80
[7] = dose: 100.0 mg/kg/injection, schedule: Q01DX001 (ip), vehicle: carboxymethylcellulose (CMC)
[8] = dose: 200.0 mg/kg/injection, schedule: Q01DX001 (ip), vehicle: carboxymethylcellulose (CMC)
[9] = dose: 400.0 mg/kg/injection, schedule: Q01DX001 (ip), vehicle: carboxymethylcellulose (CMC)

Measured: T/C

CCN(CC)c1ccc(NC(=S)Nc2ccc(N(CC)CC)cc2)cc1
inactive: dose: 75.0 mg/kg/injection, schedule: Q01DX009 (ip), vehicle: Klucel (hydroxypropylcellulose) (HPC) 100 % of control | dose: 75.0 mg/kg/injection, schedule: Q04DX003 (ip), vehicle: saline 106 % of control | dose: 150.0 mg/kg/injection, schedule: Q01DX009 (ip), vehicle: Klucel (hydroxypropylcellulose) (HPC) 101 % of control | dose: 150.0 mg/kg/injection, schedule: Q04DX003 (ip), vehicle: saline 103 % of control | dose: 300.0 mg/kg/injection, schedule: Q01DX009 (ip), vehicle: Klucel (hydroxypropylcellulose) (HPC) 94 % of control | dose: 300.0 mg/kg/injection, schedule: Q04DX003 (ip), vehicle: saline 93 % of control

COc1ccc(C2=CC(c3ccccc3)C(c3ccccc3)C(=O)N2)cc1 (stereo not given)
inactive: dose: 6.25 mg/kg/injection, schedule: Q04DX002 (ip), vehicle: saline with Tween-80 100 % of control | dose: 12.5 mg/kg/injection, schedule: Q04DX002 (ip), vehicle: saline with Tween-80 100 % of control | dose: 25.0 mg/kg/injection, schedule: Q04DX002 (ip), vehicle: saline with Tween-80 92 % of control

O=S(=O)(Nc1cc(S(=O)(=O)c2ccccc2)c(NS(=O)(=O)c2ccccc2)cc1Cl)c1ccccc1
inactive: [1] 88 % of control | [2] 92 % of control | [3] 88 % of control | dose: 400.0 mg/kg/injection, schedule: Q01DX009 (ip), vehicle: Klucel (hydroxypropylcellulose) (HPC) 87 % of control

O=S(=O)(OCC#CCOS(=O)(=O)c1ccc(Cl)c(Cl)c1)c1ccc(Cl)c(Cl)c1
inactive: dose: 12.5 mg/kg/injection, schedule: Q01DX009 (ip), vehicle: saline with Tween-80 90 % of control | dose: 25.0 mg/kg/injection, schedule: Q01DX009 (ip), vehicle: saline with Tween-80 90 % of control

Cc1ccc(S(=O)(=O)N(c2cc(C)ccc2C)c2ccccc2N)cc1
inactive: dose: 50.0 mg/kg/injection, schedule: Q01DX001 (ip), vehicle: saline 93 % of control | dose: 100.0 mg/kg/injection, schedule: Q01DX001 (ip), vehicle: saline 95 % of control | dose: 200.0 mg/kg/injection, schedule: Q01DX001 (ip), vehicle: saline 98 % of control | dose: 400.0 mg/kg/injection, schedule: Q01DX001 (ip), vehicle: saline 93 % of control

OC1c2ccccc2C=Cc2ccccc21
inactive: [1] 104 % of control | [3] 101 % of control | dose: 400.0 mg/kg/injection, schedule: Q04DX003 (ip), vehicle: Klucel (hydroxypropylcellulose) (HPC) 101 % of control

c1ccc(C2=Nc3ccccc3C(c3ccccc3)=Nc3ccccc32)cc1
inactive: [4] 89 % of control | [5] 97 % of control | [6] 89 % of control

CC(=O)Nc1c(OC(C)=O)ccc2cc(Br)ccc12
inactive: dose: 100.0 mg/kg/injection, schedule: Q01DX015 (ip), vehicle: saline 92 % of control | dose: 200.0 mg/kg/injection, schedule: Q01DX015 (ip), vehicle: saline 100 % of control | dose: 400.0 mg/kg/injection, schedule: Q01DX015 (ip), vehicle: saline 92 % of control | dose: 800.0 mg/kg/injection, schedule: Q01DX015 (ip), vehicle: saline 96 % of control

[Se]=P(c1ccccc1)(c1ccccc1)c1ccccc1
inactive: dose: 100.0 mg/kg/injection, schedule: Q01DX009 (ip), vehicle: Klucel (hydroxypropylcellulose) (HPC) 103 % of control | [2] 90 % of control

Nc1ccc2c(c1)C(O)c1cc(Br)ccc1-2 (stereo not given)
inactive: [7] 108 % of control | [8] 100 % of control | [9] 105 % of control

Oc1ccccc1C=NCC[N-]CCN=Cc1ccccc1O.[Cu+]
inactive: dose: 1.56 mg/kg/injection, schedule: Q01DX009 (ip), vehicle: Klucel (hydroxypropylcellulose) (HPC) 91 % of control | dose: 1.56 mg/kg/injection, schedule: Q04DX003 (ip), vehicle: Klucel (hydroxypropylcellulose) (HPC) 95 % of control | dose: 3.13 mg/kg/injection, schedule: Q01DX009 (ip), vehicle: Klucel (hydroxypropylcellulose) (HPC) 94 % of control | dose: 3.13 mg/kg/injection, schedule: Q04DX003 (ip), vehicle: Klucel (hydroxypropylcellulose) (HPC) 93 % of control | dose: 6.25 mg/kg/injection, schedule: Q01DX009 (ip), vehicle: Klucel (hydroxypropylcellulose) (HPC) 94 % of control | dose: 6.25 mg/kg/injection, schedule: Q04DX003 (ip), vehicle: Klucel (hydroxypropylcellulose) (HPC) 97 % of control

CC(=O)N(c1ccncc1)c1ccc([N+](=O)[O-])cc1
inactive: dose: 50.0 mg/kg/injection, schedule: Q01DX009 (ip), vehicle: saline with Tween-80 94 % of control | [4] 97 % of control and 107 % of control | dose: 100.0 mg/kg/injection, schedule: Q04DX002 (ip), vehicle: saline with Tween-80 105 % of control and 108 % of control | dose: 100.0 mg/kg/injection, schedule: Q04DX003 (ip), vehicle: saline with Tween-80 98 % of control | [5] 94 % of control and 110 % of control | dose: 200.0 mg/kg/injection, schedule: Q04DX002 (ip), vehicle: saline with Tween-80 105 % of control and 109 % of control | dose: 200.0 mg/kg/injection, schedule: Q04DX003 (ip), vehicle: saline with Tween-80 98 % of control | dose: 400.0 mg/kg/injection, schedule: Q04DX002 (ip), vehicle: saline with Tween-80 92 % of control | dose: 400.0 mg/kg/injection, schedule: Q04DX003 (ip), vehicle: saline with Tween-80 104 % of control

CCCCCCCCCCCCCCCCC/C=N\N=C(N)N
inactive: dose: 15.0 mg/kg/injection, schedule: Q01DX Z (ip), vehicle: carboxymethylcellulose (CMC) 101 % of control | dose: 30.0 mg/kg/injection, schedule: Q01DX Z (ip), vehicle: carboxymethylcellulose (CMC) 96 % of control | dose: 60.0 mg/kg/injection, schedule: Q01DX Z (ip), vehicle: carboxymethylcellulose (CMC) 90 % of control | dose: 60.0 mg/kg/injection, schedule: Q01DX Z (oral), vehicle: carboxymethylcellulose (CMC) 106 % of control | dose: 120.0 mg/kg/injection, schedule: Q01DX Z (ip), vehicle: carboxymethylcellulose (CMC) 104 % of control | dose: 120.0 mg/kg/injection, schedule: Q01DX Z (oral), vehicle: carboxymethylcellulose (CMC) 110 % of control | dose: 240.0 mg/kg/injection, schedule: Q01DX Z (oral), vehicle: carboxymethylcellulose (CMC) 118 % of control | dose: 480.0 mg/kg/injection, schedule: Q01DX Z (oral), vehicle: carboxymethylcellulose (CMC) 118 % of control

CC(C)(C)C(=O)CC(=O)C(C)(C)C.CC(C)(C)C(=O)CC(=O)C(C)(C)C.CC(C)(C)C(=O)CC(=O)C(C)(C)C.[Sm]
inactive: dose: 100.0 mg/kg/injection, schedule: Q01DX005 (ip), vehicle: saline 112 % of control | dose: 100.0 mg/kg/injection, schedule: Q01DX009 (ip), vehicle: saline 106 % of control | dose: 100.0 mg/kg/injection, schedule: Q04DX002 (ip), vehicle: saline 92 % of control | dose: 200.0 mg/kg/injection, schedule: Q01DX005 (ip), vehicle: saline 109 % of control | dose: 200.0 mg/kg/injection, schedule: Q01DX009 (ip), vehicle: saline 103 % of control | dose: 200.0 mg/kg/injection, schedule: Q04DX002 (ip), vehicle: saline 95 % of control | dose: 400.0 mg/kg/injection, schedule: Q01DX005 (ip), vehicle: saline 98 % of control | dose: 400.0 mg/kg/injection, schedule: Q01DX009 (ip), vehicle: saline 98 % of control | dose: 400.0 mg/kg/injection, schedule: Q04DX002 (ip), vehicle: saline 103 % of control

CNC(=O)C(CCC(=O)OC)NS(=O)(=O)c1ccc(C)cc1 (stereo not given)
inactive: dose: 100.0 mg/kg/injection, schedule: Q01DX001 (ip), vehicle: saline with Tween-80 100 % of control | [4] 104 % of control | dose: 200.0 mg/kg/injection, schedule: Q01DX001 (ip), vehicle: saline with Tween-80 100 % of control | [5] 96 % of control | dose: 400.0 mg/kg/injection, schedule: Q01DX001 (ip), vehicle: saline with Tween-80 100 % of control | [6] 104 % of control

O=C(O)CCN1C/C(=C\c2ccccc2)C(=O)C1=O
inactive: dose: 100.0 mg/kg/injection, schedule: Q04DX003 (ip), vehicle: saline 101 % of control | dose: 200.0 mg/kg/injection, schedule: Q04DX003 (ip), vehicle: saline 101 % of control | dose: 400.0 mg/kg/injection, schedule: Q04DX003 (ip), vehicle: saline 101 % of control

CC/C=C(\C)C1(CC)C(=O)NC(=O)NC1=O
inactive: dose: 75.0 mg/kg/injection, schedule: Q01DX001 (ip), vehicle: saline 102 % of control | dose: 150.0 mg/kg/injection, schedule: Q01DX001 (ip), vehicle: saline 95 % of control

CCSC(=O)n1nc(Cl)c2cc([N+](=O)[O-])ccc21
inactive: [7] 93 % of control | [8] 102 % of control | [9] 93 % of control
